Assay results from ChEMBL document CHEMBL1201862, “PubChem BioAssay data set” (2004).
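Compound exposure: 48 hours, 5 concentrations, 96-well plates. GI50 = concentration required for 50% inhibition of growth.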 The source made the active and inactive calls. Cut-off read from the data, not from the text of the source: active = GI50 up to about 1.1 µM and inactive = higher.

What was measured:
Test in all cases: inhibition of tumour cell growth, NCI panel, 48 h
CCRF-CEM = test system: CCRF-CEM
K562 = test system: K562
MCF7 = test system: MCF7
MDA-N = test system: MDA-N
MOLT-4 = test system: MOLT-4
NCI-H522 = test system: NCI-H522
OVCAR-3 = test system: OVCAR-3
SF-295 = test system: SF-295
TK-10 = test system: TK-10
UACC-257 = test system: UACC-257
A498 = test system: A498
COLO 205 = test system: COLO 205
HCC 2998 = test system: HCC 2998
HCT-15 = test system: HCT-15
Malme-3M = test system: Malme-3M
NCI/ADR-RES = test system: NCI/ADR-RES
SK-MEL-5 = test system: SK-MEL-5
HOP-62 = test system: HOP-62
SN12C = test system: SN12C

Row | SMILES | GI50 (CCRF-CEM) | GI50 (K562) | GI50 (MCF7) | GI50 (MDA-N) | GI50 (MOLT-4) | GI50 (NCI-H522) | GI50 (OVCAR-3) | GI50 (SF-295) | GI50 (TK-10) | GI50 (UACC-257) | GI50 (A498) | GI50 (COLO 205) | GI50 (HCC 2998) | GI50 (HCT-15) [µM] | GI50 (Malme-3M) | GI50 (NCI/ADR-RES) | GI50 (SK-MEL-5) | GI50 (HOP-62) | GI50 (SN12C)
1 | CCc1cc2c(oc3c4ccccc4ccc23)c(=O)[nH]1 | > 10 µM (inactive) | > 10 µM (inactive) | > 10 µM (inactive) | > 10 µM (inactive) | > 10 µM (inactive) | > 10 µM (inactive) | > 10 µM (inactive) | > 10 µM (inactive) | > 10 µM (inactive) | > 10 µM (inactive) |  |  |  |  |  |  |  |  | 
2 | COc1cc2c(c(OC)c1OC)C(=O)CC2N (configuration not stated) | > 100 µM (inactive) | > 100 µM (inactive) | > 100 µM (inactive) |  | > 100 µM (inactive) | > 100 µM (inactive) | > 100 µM (inactive) | > 100 µM (inactive) | > 100 µM (inactive) | > 100 µM (inactive) | > 100 µM (inactive) | > 100 µM (inactive) | > 100 µM (inactive) | > 100 | > 100 µM (inactive) | > 100 µM (inactive) | > 100 µM (inactive) |  | 
3 | CC1=NN(c2nc(N)nc(C(C)Cl)n2)C(C)(C)C1 (configuration not stated) | > 100 µM (inactive) | 85.9 µM (inactive) | > 100 µM (inactive) |  | > 100 µM (inactive) |  |  | > 100 µM (inactive) | > 100 µM (inactive) | > 100 µM (inactive) | > 100 µM (inactive) | > 100 µM (inactive) | > 100 µM (inactive) | > 100 |  | > 100 µM (inactive) | > 100 µM (inactive) | > 100 µM (inactive) | 
4 | COc1cccc([C@@]2(O)c3c(ccc(O)c3OC)[C@H]2OC)c1OC | 45.4 µM (inactive) | 44.5 µM (inactive) |  |  | 45.5 µM (inactive) | 16.3 µM (inactive) | 23.9 µM (inactive) | 57.8 µM (inactive) | 31.1 µM (inactive) | 98.2 µM (inactive) | 58.1 µM (inactive) |  | 25.7 µM (inactive) |  | 46.2 µM (inactive) |  | 37.9 µM (inactive) | 60.5 µM (inactive) | 62.1 µM (inactive)
5 | Cc1ccc(/N=C2\SC(=S)N(CCC[N+](C)(C)C)\C2=N/c2ccc(C)cc2)cc1 | 19.1 µM (inactive) | 7.13 µM (inactive) | 21.6 µM (inactive) | 12.8 µM (inactive) | 10.1 µM (inactive) |  |  |  | 18.9 µM (inactive) | 12 µM (inactive) | 17.2 µM (inactive) | 10.3 µM (inactive) | 15.9 µM (inactive) | 13.8 | 18.1 µM (inactive) |  | 10.9 µM (inactive) | 23.7 µM (inactive) | 11.2 µM (inactive)
6 | CCCCCCCCCCCCCCCCCc1nnc(N)o1 |  | > 100 µM (inactive) |  |  | > 100 µM (inactive) | > 100 µM (inactive) | > 100 µM (inactive) | > 100 µM (inactive) | > 100 µM (inactive) | > 100 µM (inactive) |  | > 100 µM (inactive) | > 100 µM (inactive) | > 100 | > 100 µM (inactive) |  |  | > 100 µM (inactive) | > 100 µM (inactive)
7 | Cc1ccc(Oc2ccc([N+](=O)[O-])cc2[N+](=O)[O-])c(C)c1 | 30.1 µM (inactive) | 30.5 µM (inactive) |  |  | 21.5 µM (inactive) |  | 35.2 µM (inactive) | 49.3 µM (inactive) | 96.4 µM (inactive) | 26.1 µM (inactive) | 37.9 µM (inactive) |  | > 100 µM (inactive) | 35.1 | 75 µM (inactive) |  | 21.1 µM (inactive) | 49.2 µM (inactive) | 41.2 µM (inactive)
8 | N[C@H](C(=O)O)[C@@H]1CC(Br)=NO1 |  |  | 41.5 µM (inactive) |  | 59.3 µM (inactive) | 77.4 µM (inactive) | > 100 µM (inactive) | 73.6 µM (inactive) | 47.1 µM (inactive) | > 100 µM (inactive) | > 100 µM (inactive) | 71.3 µM (inactive) | 59.6 µM (inactive) | 54.1 | > 100 µM (inactive) | > 100 µM (inactive) | 54.5 µM (inactive) | 61.9 µM (inactive) | 
9 | O=C1CCN(CCC(F)(F)C(F)(F)C(F)(F)C(F)(F)C(F)(F)C(F)(F)F)C(=S)N1CCC(F)(F)C(F)(F)C(F)(F)C(F)(F)C(F)(F)C(F)(F)F | > 100 µM (inactive) | > 100 µM (inactive) | > 100 µM (inactive) | > 100 µM (inactive) | > 100 µM (inactive) | > 100 µM (inactive) | > 100 µM (inactive) | > 100 µM (inactive) | > 100 µM (inactive) | > 100 µM (inactive) | > 100 µM (inactive) | > 100 µM (inactive) | > 100 µM (inactive) |  | > 100 µM (inactive) |  | > 100 µM (inactive) | > 100 µM (inactive) | > 100 µM (inactive)
10 | N#Cc1ccc(/C=C2\Cc3ccccc3C2=O)cc1 | > 100 µM (inactive) | > 100 µM (inactive) | > 100 µM (inactive) | > 100 µM (inactive) | > 100 µM (inactive) | 14.3 µM (inactive) | > 100 µM (inactive) | > 100 µM (inactive) | > 100 µM (inactive) | 75.2 µM (inactive) |  | > 100 µM (inactive) | > 100 µM (inactive) | > 100 |  |  | > 100 µM (inactive) | > 100 µM (inactive) | > 100 µM (inactive)
11 | Cc1ccc2c(c1)C(C(=O)N[C@@H]1C(=O)N3[C@@H]1SC(C)(C)[C@@H]3C(=O)O)OCCC2 (some centres not stated) | > 100 µM (inactive) | > 100 µM (inactive) | > 100 µM (inactive) |  | > 100 µM (inactive) | > 100 µM (inactive) | 87.1 µM (inactive) | > 100 µM (inactive) | > 100 µM (inactive) | > 100 µM (inactive) | > 100 µM (inactive) | > 100 µM (inactive) | > 100 µM (inactive) | > 100 |  | > 100 µM (inactive) | > 100 µM (inactive) | > 100 µM (inactive) | > 100 µM (inactive)
12 | CSc1ccc2c(cc1=O)C(NC(=O)c1ccc(C#N)cc1)CCc1cc(O)c(O)c(O)c1-2 (configuration not stated) | 9.66 µM (inactive) | 7.26 µM (inactive) |  |  | 22.5 µM (inactive) | 15.7 µM (inactive) | 36.6 µM (inactive) | 27.2 µM (inactive) | 63 µM (inactive) | 12.2 µM (inactive) | 44.5 µM (inactive) | 19.6 µM (inactive) | 21.8 µM (inactive) | 19 | > 100 µM (inactive) |  | 15.4 µM (inactive) | > 100 µM (inactive) | 19.8 µM (inactive)
13 | O=C1C(NCCN2CCOCC2)=C(Cl)C(=O)c2ncccc21 | 0.214 µM (active) | 0.179 µM (active) | 0.326 µM (active) | 0.178 µM (active) | 2.15 µM (inactive) |  | 0.392 µM (active) | 1.4 µM (inactive) | 1.45 µM (inactive) |  | 2.03 µM (inactive) |  | 0.625 µM (active) | 0.339 | 0.564 µM (active) |  | 0.312 µM (active) | 1.6 µM (inactive) | 1.36 µM (inactive)
